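Exposure lasted 48 hours, with cells grown in 96-well plates and compounds tested at five concentrations. TGI marks complete inhibition of growth.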
Tests used:
Experiment in all cases: inhibition of tumour cell growth, NCI panel, 48 h
OVCAR-4 ovarian = tested on: OVCAR-4 ovarian
M14 melanoma = tested on: M14 melanoma
OVCAR-5 ovarian = tested on: OVCAR-5 ovarian
SK-OV-3 ovarian = tested on: SK-OV-3 ovarian
HT29 colon = tested on: HT29 colon
SF-295 CNS = tested on: SF-295 CNS
LOX IMVI melanoma = tested on: LOX IMVI melanoma
SNB-75 CNS = tested on: SNB-75 CNS
COLO 205 colon = tested on: COLO 205 colon
SNB-19 CNS = tested on: SNB-19 CNS
TK-10 renal = tested on: TK-10 renal
NCI-H460 lung = tested on: NCI-H460 lung
SN12C renal = tested on: SN12C renal
SK-MEL-2 melanoma = tested on: SK-MEL-2 melanoma
NCI-H23 lung = tested on: NCI-H23 lung
NCI-H522 lung = tested on: NCI-H522 lung
A498 renal = tested on: A498 renal
KM12 colon = tested on: KM12 colon
SF-268 CNS = tested on: SF-268 CNS
RXF 393 renal = tested on: RXF 393 renal

Row | SMILES | TGI (OVCAR-4 ovarian) | TGI (M14 melanoma) | TGI (OVCAR-5 ovarian) | TGI (SK-OV-3 ovarian) | TGI (HT29 colon) | TGI (SF-295 CNS) | TGI (LOX IMVI melanoma) | TGI (SNB-75 CNS) | TGI (COLO 205 colon) | TGI (SNB-19 CNS) | TGI (TK-10 renal) | TGI (NCI-H460 lung) | TGI (SN12C renal) | TGI (SK-MEL-2 melanoma) | TGI (NCI-H23 lung) | TGI (NCI-H522 lung) | TGI (A498 renal) | TGI (KM12 colon) | TGI (SF-268 CNS) | TGI (RXF 393 renal)
1 | COP(C)(=O)/C(Cc1ccccc1)=N\O (stereo unspecified) | > 100 µM | > 100 µM | > 100 µM | > 100 µM | > 100 µM | > 100 µM | > 100 µM | > 100 µM | > 100 µM | > 100 µM | > 100 µM | > 100 µM | > 100 µM | > 100 µM | > 100 µM |  |  |  |  | 
2 | CC(C)(C)[Si](C)(C)OCCCC#CCO | > 100 µM | > 100 µM | > 100 µM | > 100 µM | > 100 µM | > 100 µM | > 100 µM | > 100 µM | > 100 µM | > 100 µM | > 100 µM | > 100 µM | > 100 µM | > 100 µM | > 100 µM | > 100 µM | > 100 µM | > 100 µM | > 100 µM | > 100 µM
3 | O=P(O)(O)C(CSc1ccccc1)P(=O)(O)O | > 100 µM |  | > 100 µM | > 100 µM | > 100 µM | > 100 µM | > 100 µM | > 100 µM | > 100 µM | > 100 µM |  | > 100 µM | > 100 µM | > 100 µM | > 100 µM | > 100 µM | > 100 µM | > 100 µM | > 100 µM | > 100 µM
4 | O=C(NO)c1coc2ccccc2c1=O | > 100 µM | > 100 µM | > 100 µM | 31.4 µM | > 100 µM | > 100 µM | > 100 µM | > 100 µM | > 100 µM | > 100 µM | > 100 µM |  | > 100 µM | > 100 µM | > 100 µM | > 100 µM | > 100 µM | > 100 µM | > 100 µM | > 100 µM
5 | C=C1c2c(cc3c(c2O)c(=O)c2ccccc2n3C)OC1(C)C |  | > 100 µM |  | 97.2 µM | > 100 µM | > 100 µM | > 100 µM | 42 µM | > 100 µM | > 100 µM | > 100 µM | > 100 µM | > 100 µM | > 100 µM | 27.3 µM | 9.49 µM | > 100 µM |  | > 100 µM | 
6 | CC[N+]1(C)CCC(O)(c2ccc(Cl)cc2)C(C(=O)c2ccc(Cl)cc2)C1 (stereo unspecified) | 78.4 µM | 36.2 µM | 33.1 µM | 27.7 µM | 94.4 µM |  | 25.6 µM |  | 23.8 µM | 31.8 µM | 34.1 µM | 63.8 µM | 37.5 µM |  | 38.5 µM | 3.51 µM | 48.3 µM | 31.7 µM | 58.8 µM | 27.4 µM
7 | Cc1c(-c2cc3n(n2)C(c2cccs2)C(C#N)=C(c2ccccc2)N3)c(=O)n(-c2ccccc2)n1C (stereo unspecified) | > 100 µM |  | > 100 µM | > 100 µM | > 100 µM | > 100 µM | > 100 µM | > 100 µM | > 100 µM | > 100 µM |  | > 100 µM | > 100 µM | > 100 µM | > 100 µM | > 100 µM | > 100 µM | > 100 µM | > 100 µM | > 100 µM
8 | COc1ccc(Cc2nc3cc(C(F)(F)F)ccc3n2CCCN(C)C)cc1 | 80.4 µM | 28.7 µM | > 100 µM | 41.9 µM | 39.9 µM | 37.5 µM | 40 µM |  | 34.3 µM | > 100 µM | 50.2 µM | 46.7 µM |  | 36.1 µM | 41.1 µM | 31.8 µM | 35.6 µM | 30.3 µM | 70.9 µM | 29.2 µM
